Non-standard residues stand in square brackets, D forms with d. No end group written: not given here.
Legend:
[1] = test system: peptide-pulsed A24LCL cells; assay: IFN-gamma ELISPOT assay on CTLs induced with VANGL1 peptides; format: cell-based, human; conditions: CTLs from HLA-A*2402 positive donor after 3rd peptide stimulation, day 21; compared to the control wells
Source text: (§1) Monocyte-derived dendritic cells (DCs) were used as antigen-presenting cells (APCs) to induce cytotoxic T lymphocyte (CTL) responses against peptides presented on human leukocyte antigen (HLA). DCs were generated in vitro as described elsewhere (Nakahara S et al., Cancer Res 2003 Jul. 15, 63(14): 4112-8). Specifically, peripheral blood mononuclear cells (PBMCs) isolated from a normal volunteer (HLA-A*2402 positive) by Ficoll-Plaque (Pharmacia) solution were separated by adherence to a plastic tissue culture dish (Becton Dickinson) so as to enrich them as the monocyte fraction. The monocyte-enriched population was cultured in the presence of 1,000 U/ml of granulocyte-macrophage colony-stimulating factor (GM-CSF) (R&D System) and 1,000 U/ml of interleukin (IL)-4 (R&D System) in AIM-V Medium (Invitrogen) containing 2% heat-inactivated autologous serum (AS). After 7 days of culture, the cytokine-induced DCs were pulsed with 20 micro-g/ml of each of the synthesized peptides in the presence of 3 micro-g/ml of beta 2-microglobulin for 3 hrs at 37 degrees C. in AIM-V Medium. The generated cells appeared to express DC-associated molecules, such as CD80, CD83, CD86 and HLA class II, on their cell surfaces (data not shown). These peptide-pulsed DCs were then inactivated by X-irradiation (20 Gy) and mixed at a 1:20 ratio with autologous CD8+ T cells, obtained by positive selection with CD8 Positive Isolation Kit (Dynal). These cultures were set up in 48-well plates (Corning); each well contained 1.5×10^4 peptide-pulsed DCs, 3×10^5 CD8+ T cells and 10 ng/ml of IL-7 (R&D System) in 0.5 ml of AIM-V/2% AS medium. Three days later, these cultures were supplemented with IL-2 (CHIRON) to a final concentration of 20 IU/ml. On days 7 and 14, the T cells were further stimulated with the autologous peptide-pulsed DCs. The DCs were prepared each time by the same way described above. CTL was tested against peptide-pulsed A24LCL cells after the 3rd round of peptide stimulation on day 21 (Tanaka H et al., Br J Cancer 2001 Jan. 5, 84(1): 94-9; Umano Y et al., Br J Cancer 2001 Apr. 20, 84(8): 1052-7; Uchida N et al., Clin Cancer Res 2004 Dec. 15, 10(24): 8577-86; Suda T et al., Cancer Sci 2006 May, 97(5): 411-9; Watanabe T et al., Cancer Sci 2005 August, 96(8): 498-506).
(§2) To examine specific CTL activity, interferon (IFN)-gamma enzyme-linked immunospot (ELISPOT) assay and IFN-gamma enzyme-linked immunosorbent assay (ELISA) were performed. Specifically, peptide-pulsed A24LCL (1×10^4/well) was prepared as stimulator cells. Cultured cells in 48 wells were used as responder cells. IFN-gamma ELISPOT assay and IFN-gamma ELISA assay were performed under manufacture procedure.

[2] = test system: peptide-pulsed A24LCL cells; assay: IFN-gamma ELISA assay of established CTL lines; format: cell-based, human; conditions: target cells pulsed with corresponding peptide vs target cells without peptide pulse
Source text: as §1
CTLs were expanded in culture using the method similar to the one described by Riddell et al. (Walter E A et al., N Engl J Med 1995 Oct. 19, 333(16): 1038-44; Riddell S R et al., Nat Med 1996 February, 2(2): 216-23). A total of 5×10^4 CTLs were suspended in 25 ml of AIM-V/5% AS medium with 2 kinds of human B-lymphoblastoid cell lines, inactivated by Mitomycin C, in the presence of 40 ng/ml of anti-CD3 monoclonal antibody (Pharmingen). One day after initiating the cultures, 120 IU/ml of IL-2 were added to the cultures. The cultures were fed with fresh AIM-V/5% AS medium containing 30 IU/ml of IL-2 on days 5, 8 and 11 (Tanaka H et al., Br J Cancer 2001 Jan. 5, 84(1): 94-9; Umano Y et al., Br J Cancer 2001 Apr. 20, 84(8): 1052-7; Uchida N et al., Clin Cancer Res 2004 Dec. 15, 10(24): 8577-86; Suda T et al., Cancer Sci 2006 May, 97(5): 411-9; Watanabe T et al., Cancer Sci 2005 August, 96(8): 498-506).
as §2

[3] = test system: target cells pulsed peptide; assay: IFN-gamma ELISA assay of CTL clones established by limiting dilution; format: cell-based, human; conditions: CTL clones against target cells pulsed peptide
Description: The dilutions were made to have 0.3, 1, and 3 CTLs/well in 96 round-bottomed micro titer plate (Nalge Nunc International). CTLs were cultured with 1×10^4 cells/well of 2 kinds of human B-lymphoblastoid cell lines, 30 ng/ml of anti-CD3 antibody, and 125 U/ml of IL-2 in a total of […] of AIM-V Medium containing 5% AS. 50 micro-Dwell of IL-2 were added to the medium 10 days later so to reach a final concentration of 125 U/ml IL-2. CTL activity was tested on the 14th day, and CTL clones were expanded using the same method as described above (Uchida N et al., Clin Cancer Res 2004 Dec. 15, 10(24): 8577-86; Suda T et al., Cancer Sci 2006 May, 97(5): 411-9; Watanabe T et al., Cancer Sci 2005 August, 96(8): 498-506).
as §2

[4] = test system: COS7 cells transfected with VANGL1 and HLA-A*2402; assay: Specific CTL activity against target cells exogenously expressing VANGL1 and HLA-A*2402; format: cell-based, African green monkey
Source text: The cDNA encoding an open reading frame of target genes or HLA-A*2402 was amplified by PCR. The PCR-amplified product was cloned into pCAGGS vector. The plasmids were transfected into COS7, which is the target genes and HLA-A24-negative cell line, using lipofectamine 2000 (Invitrogen) according to the manufacturer's recommended procedures. After 2 days from transfection, the transfected cells were harvested with versene (Invitrogen) and used as the target cells (5×10^4 cells/well) for CTL activity assay.
The established CTL lines raised against these peptides were examined for their ability to recognize target cells that endogenously express VANGL1 and HLA-A*2402 molecule. Specific CTL activity against COS7 cells which transfected with both the full length of VANGL1 and HLA-A*2402 molecule gene (a specific model for the target cells that exogenously express VANGL1 and HLA-A*2402 gene) was tested using the CTL lines raised by corresponding peptide as the effecter cells. COS7 cells transfected with either full length of VANGL1 genes or HLA-A* 2402 were prepared as controls.

## RYLGLTVAS [SEQ ID NO: 11]
[1]
  Peptide specific CTL activity: IFN-gamma production (ELISPOT): potent IFN-gamma production
[2]
  CTL activity of CTL lines: IFN-gamma production (ELISA): potent IFN-gamma production

## LFISmAFKLL (LFIS[code m]AFKLL) [SEQ ID NO: 25]
[1]
  Peptide specific CTL activity: IFN-gamma production (ELISPOT): potent IFN-gamma production
[2]
  CTL activity of CTL lines: IFN-gamma production (ELISA): potent IFN-gamma production

## VELTpIAFIL [SEQ ID NO: 22]
[1]
  Peptide specific CTL activity: IFN-gamma production (ELISPOT): potent IFN-gamma production
[3]
  IFN-gamma production from CTL clones (ELISA): Potent IFN-gamma productions
[2]
  CTL activity of CTL lines: IFN-gamma production (ELISA): potent IFN-gamma production

## VFVFRALLL [SEQ ID NO: 8]
[1]
  Peptide specific CTL activity: IFN-gamma production (ELISPOT): potent IFN-gamma production
[3]
  IFN-gamma production from CTL clones (ELISA): Potent IFN-gamma productions
[2]
  CTL activity of CTL lines: IFN-gamma production (ELISA): potent IFN-gamma production

## VFRALLLVL [SEQ ID NO: 9]
[1]
  Peptide specific CTL activity: IFN-gamma production (ELISPOT): potent IFN-gamma production
[2]
  CTL activity of CTL lines: IFN-gamma production (ELISA): potent IFN-gamma production

## DFTIyNPNLL (DFTI[code y]NPNLL) [SEQ ID NO: 26]
[1]
  Peptide specific CTL activity: IFN-gamma production (ELISPOT): potent IFN-gamma production

## HYLAiVLLEL (HYLA[code i]VLLEL) [SEQ ID NO: 18]
[1]
  Peptide specific CTL activity: IFN-gamma production (ELISPOT): potent IFN-gamma production
[3]
  IFN-gamma production from CTL clones (ELISA): Potent IFN-gamma productions
[2]
  CTL activity of CTL lines: IFN-gamma production (ELISA): potent IFN-gamma production

## LFIHyLAIVL (LFIH[code y]LAIVL) [SEQ ID NO: 24]
[1]
  Peptide specific CTL activity: IFN-gamma production (ELISPOT): potent IFN-gamma production
[3]
  IFN-gamma production from CTL clones (ELISA): Potent IFN-gamma productions
[2]
  CTL activity of CTL lines: IFN-gamma production (ELISA): potent IFN-gamma production

## NYQGiVQYAV (NYQG[code i]VQYAV) [SEQ ID NO: 32]
[1]
  Peptide specific CTL activity: IFN-gamma production (ELISPOT): potent IFN-gamma production
[2]
  CTL activity of CTL lines: IFN-gamma production (ELISA): potent IFN-gamma production

## RYLSAGPTL [SEQ ID NO: 1]
[1]
  Peptide specific CTL activity: IFN-gamma production (ELISPOT): potent IFN-gamma production
[4]; COS7 cells expressing both VANGL1 and HLA-A*2402
  Specific CTL activity: potent CTL activity
[4]; controls: COS7 cells transfected with either full length VANGL1 or HLA-A*2402
  Specific CTL activity: no significant specific CTL activity
[2]
  CTL activity of CTL lines: IFN-gamma production (ELISA): potent IFN-gamma production

## LFVVSYWLF [SEQ ID NO: 12]
[1]
  Peptide specific CTL activity: IFN-gamma production (ELISPOT): potent IFN-gamma production
[2]
  CTL activity of CTL lines: IFN-gamma production (ELISA): potent IFN-gamma production

— patent US20120107333A1, “VANGL1 PEPTIDES AND VACCINES INCLUDING THE SAME” (Oncotherapy Science, Inc., priority 2009, published 2012)
